In a compilation of properties of binary mixtures (doi:10.7498/aps.66.196101):

Assay: xn = mol fraction of the nth substance listed
Conditions: 100 kPa

CCCCCC[n+]1ccccc1.N#C[N-]C#N + O
Conditions	electrical conductivity, x1 = 0.9076 [S/m]	electrical conductivity, x1 = 0.9239 [S/m]	electrical conductivity, x1 = 0.9408 [S/m]	electrical conductivity, x1 = 0.9582 [S/m]	electrical conductivity, x1 = 0.9762 [S/m]	viscosity, x1 = 0.9152 [mPa·s]	viscosity, x1 = 0.9306 [mPa·s]	viscosity, x1 = 0.9488 [mPa·s]	viscosity, x1 = 0.9665 [mPa·s]	viscosity, x2 = 0.0151 [mPa·s]
298.15 K	0.554	0.532	0.512	–	–	49.3	–	51.8	53.7	–
303.15 K	0.682	0.66	0.642	0.615	0.588	39.19	40.28	41.67	–	45.48
308.15 K	0.817	–	0.769	0.739	0.711	32.18	33.01	34.12	35.44	37.16
313.15 K	0.997	0.958	0.927	0.889	0.839	26.76	27.39	28.15	29.09	30.51
318.15 K	1.17	1.12	–	1.05	1	–	23.12	23.8	–	25.35
323.15 K	1.34	1.29	1.26	1.22	1.17	18.75	19.06	19.48	20.12	21.03
328.15 K	1.52	–	1.42	1.39	–	–	16.38	–	17.36	18.12
333.15 K	1.73	1.68	1.64	1.59	1.55	13.84	14.07	14.44	14.95	15.67
338.15 K	–	1.9	–	1.8	1.75	–	12.38	12.75	13.17	–

CCCCC[n+]1ccccc1.N#C[N-]C#N + O
Conditions	electrical conductivity, x1 = 0.9199 [S/m]	electrical conductivity, x1 = 0.9356 [S/m]	electrical conductivity, x1 = 0.9518 [S/m]	electrical conductivity, x1 = 0.9685 [S/m]	electrical conductivity, x2 = 0.0142 [S/m]	viscosity, x1 = 0.9199 [mPa·s]	viscosity, x1 = 0.9345 [mPa·s]	viscosity, x1 = 0.9518 [mPa·s]	viscosity, x1 = 0.9674 [mPa·s]	viscosity, x2 = 0.0154 [mPa·s]
298.15 K	0.687	–	0.648	0.63	0.611	41	42.1	43.4	44.7	45.9
303.15 K	0.865	–	0.798	0.761	0.719	33.3	34.1	35.1	36	37
308.15 K	1.08	1.03	–	0.926	0.873	27.4	28.1	–	–	30.4
313.15 K	–	1.19	1.13	1.09	1.03	–	23.49	24.01	24.6	25.4
318.15 K	1.42	1.39	1.33	–	–	19.45	19.85	20.32	20.87	21.39
323.15 K	–	1.6	1.55	–	1.43	–	–	16.27	–	–
328.15 K	1.86	–	1.76	1.7	–	13.96	–	14.48	14.81	–
333.15 K	2.08	2.03	1.97	1.92	1.88	12.2	12.43	12.69	12.99	13.26
338.15 K	2.34	2.29	–	2.17	2.12	10.78	10.9	–	11.32	11.64

CCCC[n+]1ccccc1.N#C[N-]C#N + O
Conditions	electrical conductivity, x1 = 0.9189 [S/m]	electrical conductivity, x1 = 0.9335 [S/m]	electrical conductivity, x1 = 0.9486 [S/m]	electrical conductivity, x1 = 0.9642 [S/m]	electrical conductivity, x2 = 0.0198 [S/m]	viscosity, x1 = 0.9257 [mPa·s]	viscosity, x1 = 0.9415 [mPa·s]	viscosity, x1 = 0.9569 [mPa·s]	viscosity, x1 = 0.9726 [mPa·s]	viscosity, x2 = 0.0111 [mPa·s]
298.15 K	1.03	0.997	0.968	–	0.903	28.23	29.04	–	31.13	32.25
303.15 K	–	–	–	1.08	1.06	23.59	24.03	–	25.61	26.58
308.15 K	1.41	1.38	1.34	1.29	1.26	19.79	20.18	20.75	21.47	22.17
313.15 K	1.65	1.6	1.57	–	1.5	–	17.11	–	18.19	18.73
318.15 K	1.93	–	1.85	1.81	1.76	–	14.67	15	–	16.14
323.15 K	2.32	2.26	2.18	2.11	2.05	12.11	12.4	–	13.13	–
328.15 K	2.51	2.47	2.42	2.36	2.3	–	–	11.08	11.44	11.84
333.15 K	2.85	2.81	–	–	2.65	9.38	9.57	–	10.1	10.43
338.15 K	3.22	3.16	3.1	3.05	2.99	8.34	–	8.65	8.93	9.19

CCCC[n+]1ccn(C)c1.N[C@@H](CO)C(=O)[O-] + O
Conditions	electrical conductivity, x1 = 0.8285 [S/m]	electrical conductivity, x1 = 0.843 [S/m]	electrical conductivity, x1 = 0.8591 [S/m]	electrical conductivity, x1 = 0.8757 [S/m]	electrical conductivity, x1 = 0.8918 [S/m]	viscosity, x1 = 0.852 [mPa·s]	viscosity, x1 = 0.8736 [mPa·s]	viscosity, x1 = 0.894 [mPa·s]	viscosity, x1 = 0.9165 [mPa·s]	viscosity, x1 = 0.9388 [mPa·s]
298.15 K	0.0076	0.0071	0.0068	0.0065	–	5107	5135	–	–	5270
303.15 K	0.0118	0.0111	–	–	0.0097	2975	3000	–	3073	3147
308.15 K	0.0196	0.0183	0.017	0.016	0.0151	1828	1843	1868	1897	1952
313.15 K	0.0293	0.028	0.0261	0.0247	0.0237	1135	1159	–	1231	–
318.15 K	0.0423	0.0402	0.0375	0.0357	0.0341	753	768	790	822	870
323.15 K	0.0597	0.0565	0.0534	0.0511	0.0488	523	532	544	566	597
328.15 K	0.0817	–	–	0.0703	0.0679	–	352	–	388	–
333.15 K	–	0.106	–	0.0958	0.0921	247	255	266	279	304
338.15 K	0.146	0.14	–	0.127	0.122	–	187.4	197	212	229
